Experiment: Adaptation curves: % odour pulses correctly identified versus inter-stimulus interval (FIGS. 9C, 9D)
Assay type: in vivo, human
Settings: pulse length 200 microseconds
Source text: as it applies to individual malodour molecules and individual fragrance molecules is set forth in Jacob et al., “Psychometric Evaluation of Responses to Pleasant and Malodour Stimulation in Human Subjects; Adaptation, Dose Response and Gender Differences”, Int. J. Psychophysiology, (2003). An additional discussion of the model as it applies to olfaction is set forth in Wang et al., “The correlation between physiological and psychological responses to odor stimulation in human subjects” Clinical Neurophysiology 113 (2002) 542-551 at page 546.
wherein Z is the percentage of odour pulses correctly identified;
Y is the pulse duration, or “pulse length” measured in units of microseconds; and
X is the inter-stimulus interval, “ISI”, measured in units of seconds.
FIG. 9C is a set of adaptation curves for the malodour, n-butyric acid, with the vertical axis being the “Z” axis, indicated by reference numeral 90C and the horizontal axis being the “X” axis indicated by reference numeral 92C. The graph indicated by reference numeral 97C and data points therefor 970C is for a pulse length of 35 microseconds. The graph indicated by reference numeral 96C and data points therefor 960C is for a pulse length of 50 microseconds. The graph indicated by reference numeral 95C and data points therefor 950C is for a pulse length of 75 microseconds. […]

SMILES: CCCCCOC(C)=O [amyl acetate]
- percentage of odour pulses correctly identified, Z (point 990D on curve 93D: inter-stimulus interval X1=15 seconds, FIG. 9D): 54%

SMILES: CCCC(=O)O [n-butyric acid]
- percentage of odour pulses correctly identified, Z (point 990C on curve 93C: inter-stimulus interval X1=12 seconds, FIG. 9C): 75%
